This assay has as its system HIV. In words: Anti-HIV activity (MT-4 cells, MTT). It counts as cell-based. The conditions noted are these: 50% HIV inhibition concentration, MT-4 cells infected with HIV, incubated 4 days, MTT readout. As to the method: Previously, a series of two-fold dilution on test samples were carried out in a 96-well plate (50 μL/well). Two plates were made for measuring anti-HIV activity and measuring cytotoxicity. For each agent, measurement in duplicate was carried out. An MT-4 cell suspension of 2.5×10^5/mL was dispensed at 100 μL/well onto the 96-well plate containing the test samples. An HIV virus solution was dispensed at 50 μL/well onto the 96-well plate containing the test samples and the cell. To the plate for measuring cytotoxicity, a culture solution was dispensed at 50 μL/well. It was mixed by a plate mixer, and then incubated in a CO2 incubator for 4 days. […] Thirty microliters of a MTT (3-(4,5-dimethylthiazol-2-yl)-2,5-diphenyltetrazolium bromide) solution was dispensed to each well.
A reaction was allowed to occur in a CO2 incubator for an hour. From each well, 150 μL of the supernatant was removed such that cells are not sucked. One-hundred and fifty microliters of a cell lysis solution was added thereto, and then it was mixed well by a plate mixer until the whole cells are lysed. The mixed 96-well plates were measured by a microplate reader at two wavelengths, 560 nm/690 nm. Based on the following calculation formula, 50% HIV inhibition concentration (EC50) was calculated. EC50=10Z Z=(50%−Low %)/(High %−Low %)×{log(High conc.)−log(Low conc.)}+log(Low conc.) Based on the following calculation formula, 50% cytotoxic concentration (CC50) was calculated. CC50=10Z Z=(50%−Low %)/(High %−Low %)×{log(High conc.)−log(Low conc.)}+log(Low conc.) Based on the following calculation formula, selectivity index (ST) was calculated. SI=CC50/EC50 (Result)

[1] abbreviates: Human immunodeficiency virus 1, MT4, 96 h.

Molecules are shown by their SMILES.

In general, EC50 refers to the concentration that produces a half-maximal response. Lower therefore signals an effect from little substance. Regarding `O=C1c2c(O)c(=O)c(-c3nnc(Cc4cccc(Cl)c4F)s3)cn2CN2CCCCN12` [Compound C-14], a half-maximal effect (EC50) was put at 2.2 nM.

In the case of `O=C1c2c(O)c(=O)c(-c3nnc(Cc4ccc(F)cc4F)s3)cn2CN2CCCCN12` [Compound C-15], the EC50 under setting [1] was 1.7 nM.

Compound `O=C1c2c(O)c(=O)c(-c3nnc(Cc4ccc(F)cc4F)s3)cn2CN2CCOCCN12` [Compound C-16] returned an EC50 under setting [1] of 8.5 nM.

As for `CN1Cn2cc(-c3nnc(Cc4ccc(F)cc4F)s3)c(=O)c(O)c2C(=O)N1C` [Compound C-18], the EC50 under setting [1] was 2.3 nM.

`O=C1c2c(O)c(=O)c(-c3nnc(Cc4ccc(F)cc4F)s3)cn2CN2CCCN12` [Compound C-19] had an EC50 under setting [1] of 4.2 nM.

For `COCCN1C(=O)c2c(O)c(=O)c(-c3nnc(Cc4ccc(F)cc4F)s3)cn2CN1C` [Compound C-20], the EC50 under setting [1] worked out at 1.7 nM.

`CCN1Cn2cc(-c3nnc(Cc4ccc(F)cc4F)s3)c(=O)c(O)c2C(=O)N1CC` [Compound C-21]: the EC50 under setting [1] was determined as 1.5 nM.

In turn, `COCCN1Cn2cc(-c3nnc(Cc4ccc(F)cc4F)s3)c(=O)c(O)c2C(=O)N1C(C)C` [Compound C-22] gave an EC50 under setting [1] of 1.3 nM.

Turning to `CCN1C(=O)c2c(O)c(=O)c(-c3nnc(Cc4ccc(F)cc4F)s3)cn2CN1C` [Compound C-23], it took 1.2 nM to reach a half-maximal effect under setting [1] (EC50).

Take `O=C1c2c(O)c(=O)c(-c3nnc(Cc4ccc(F)cc4F)s3)cn2CN2CC3(CC3)CN12` [Compound C-24]: under setting [1], the EC50 worked out at 2.4 nM.

Consider `CCN1NCn2cc(-c3nnc(Cc4ccc(F)cc4F)s3)c(=O)c(O)c2C1=O` [Compound C-25], for which the EC50 under setting [1] is 2.2 nM.

In the case of `COCCN1Cn2cc(-c3nnc(Cc4ccc(F)cc4F)s3)c(=O)c(O)c2C(=O)N1C` [Compound C-26], the EC50 under setting [1] was found to be 1.5 nM. The EC50 values of the last two compounds are within 1.5-fold of each other.

For the compound `COCCN1Cn2cc(-c3nnc(Cc4ccc(F)cc4F)s3)c(=O)c(O)c2C(=O)N1CCOC` [Compound C-27], the midpoint of the response under setting [1], the EC50, lay at 2 nM.

In the case of `CC1CCN2Cn3cc(-c4nnc(Cc5ccc(F)cc5F)s4)c(=O)c(O)c3C(=O)N12` (stereo not drawn) [Compound C-28], under setting [1], it took 4.8 nM to reach a half-maximal effect (EC50).

The compound `CC(=O)Oc1c2n(cc(-c3nnc(Cc4ccc(F)cc4F)s3)c1=O)C[C@@H]1OCC[C@@H](C)N1C2=O` [Compound D-1] came in with an EC50 under setting [1] of 3.8 nM.

`COC(=O)OCOc1c2n(cc(-c3nnc(Cc4ccc(F)cc4F)s3)c1=O)C[C@@H]1OCC[C@@H](C)N1C2=O` [Compound D-2] returned an EC50 under setting [1] of 8 nM.

Under setting [1], `C[C@@H]1CCO[C@H]2Cn3cc(-c4nnc(Cc5ccc(F)cc5F)s4)c(=O)c(OCOC(=O)C(C)(C)C)c3C(=O)N12` [Compound D-3] gave an EC50 of 4.8 nM.

`COCCOC(=O)Oc1c2n(cc(-c3nnc(Cc4ccc(F)cc4F)s3)c1=O)C[C@@H]1OCC[C@@H](C)N1C2=O` [Compound D-4]: a half-maximal response under setting [1] (EC50) required 4.1 nM.
